In PMC8779173, “Discovery of Cofactor Competitive Inhibitors against the Human Methyltransferase Fibrillarin” (Pharmaceuticals, 2021):

Columns and labels:
human fibrillarin (hFBL) [1] = biological target: T1, human fibrillarin (hFBL) (Homo sapiens, UniProt P22087); test: biochemical; set-up: SPR binding affinity of compounds to human fibrillarin methyltransferase domain; conditions: SPR
T1 construct: gene FBL; methyltransferase domain (residues 83–321)
T1 sequence (P22087 83-321): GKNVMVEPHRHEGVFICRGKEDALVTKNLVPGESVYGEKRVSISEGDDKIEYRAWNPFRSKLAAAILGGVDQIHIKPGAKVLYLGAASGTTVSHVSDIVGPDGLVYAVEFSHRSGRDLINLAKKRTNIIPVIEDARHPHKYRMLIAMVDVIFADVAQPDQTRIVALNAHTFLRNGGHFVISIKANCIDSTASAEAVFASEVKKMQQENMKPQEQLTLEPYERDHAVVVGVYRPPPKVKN
From the text: In addition, electron density for 1a was not observed beyond the amide linker, which appeared to be turning away from the catalytic site and pointing towards the bulk solvent. […] Indeed, the binding affinity of 1a turned out to be similar to that of 1 (Supplemental Table S3). […] Additionally, the extended piperidine ring in 2a was engaged in multiple hydrophobic interactions with residues G167, D236, and V237 with a stable chair conformation.

human fibrillarin (hFBL) [2] = biological target: T1, human fibrillarin (hFBL); test: crystal structure (soak; no density beyond the amide linker); STD NMR competition with SAM; SPR; format: binding
human fibrillarin (hFBL) [3] = biological target: T1, human fibrillarin (hFBL); test: STD NMR competition with SAM; format: binding
human fibrillarin (hFBL) [4] = biological target: T1, human fibrillarin (hFBL); test: crystal structure (soak); STD NMR competition with SAM; SPR; format: binding
human fibrillarin (hFBL) [5] = biological target: T1, human fibrillarin (hFBL); test: ITC; also SPR (Kd […]), STD NMR and crystal structure; format: binding

## N[C@H](Cc1cccc(NC(=O)Cc2cn3nc(C(F)(F)F)cc3c(=O)[nH]2)c1)C(=O)O [1a, (R)-2-Amino-3-(3-(2-(4-oxo-2-(trifluoromethyl)-4,5-dihydropyrazolo[1,5-a]pyrazin-6-yl)acetamido)phenyl)propanoic acid]
Human fibrillarin (hFBL) [1]
  Kd: 510 ± 50 µM
Human fibrillarin (hFBL) [2]
  crystal structure (soak; no density beyond the amide linker); STD NMR competitio: complex structures were obtained for 1a (PDB code: 7SEC) and 2a (PDB code: 7SED)

## N[C@@H](Cc1cccc(NC(=O)Cc2cn3nc(C(F)(F)F)cc3c(=O)[nH]2)c1)C(=O)O [1c, (S)-2-Amino-3-(3-(2-(4-oxo-2-(trifluoromethyl)-4,5-dihydropyrazolo[1,5-a]pyrazin-6-yl)acetamido)phenyl)propanoic acid]
Human fibrillarin (hFBL) [1]
  Kd: 2660 ± 40 µM
Human fibrillarin (hFBL) [3]
  STD NMR competition with SAM: without the amino acid 1e were also shown to compete with SAM binding to hFBL in solution by STD NMR

## N[C@@H](CCCNC(=O)Cc1cn2nc(C(F)(F)F)cc2c(=O)[nH]1)C(=O)O [1d, (S)-2-Amino-5-(2-(4-oxo-2-(trifluoromethyl)-4,5-dihydropyrazolo[1,5-a]pyrazin-6-yl)acetamido)pentanoic acid]
Human fibrillarin (hFBL) [1]
  Kd: 3350 ± 480 µM
Human fibrillarin (hFBL) [3]
  STD NMR competition with SAM: In addition to 1a, 1c, 1d, and a synthetic intermediate without the amino acid 1e were also shown to compete

## O=C(O)Cc1cn2nc(C(F)(F)F)cc2c(=O)[nH]1 [1e, 2-(4-Oxo-2-(trifluoromethyl)-4,5-dihydropyrazolo[1,5-a]pyrazin-6-yl)acetic acid]
Human fibrillarin (hFBL) [3]
  STD NMR competition with SAM: a synthetic intermediate without the amino acid 1e were also shown to compete with SAM binding to hFBL

## FC(F)(F)c1cc(NC2CCNCC2)ncn1 [2a]
Human fibrillarin (hFBL) [1]
  Kd: 43.8 ± 2.2 µM
Human fibrillarin (hFBL) [4]
  crystal structure (soak); STD NMR competition with SAM; SPR: complex structures were obtained for 1a (PDB code: 7SEC) and 2a (PDB code: 7SED)

## FC(F)(F)c1cc(NC2CCOCC2)ncn1 [2b]
Human fibrillarin (hFBL) [1]
  Kd: 250 ± 20 µM
Human fibrillarin (hFBL) [3]
  STD NMR competition with SAM: both 2a and 2b were shown to compete with cofactor binding by STD NMR assays

## C[S@@+](CC[C@H](N)C(=O)[O-])C[C@H]1O[C@@H](n2cnc3c(N)ncnc32)[C@H](O)[C@@H]1O [SAM]
Human fibrillarin (hFBL) [1]
  Kd: 33.7 ± 7.7 µM
Human fibrillarin (hFBL) [5]
  Kd: 14 ± 0.8 µM

## Cc1cn2cc(C(F)(F)F)cc2c(=O)[nH]1 [compound 1, PS-6655]
Human fibrillarin (hFBL) [1]
  Kd: 520 ± 40 µM

## Nc1cc(C(F)(F)F)ncn1 [compound 2, FS-2818]
Human fibrillarin (hFBL) [1]
  Kd: 2700 ± 780 µM
